Experiments:
Type in all cases: in vivo
Scirpus juncoides = experiment: Test Example 2: herbicidal activity, application during weed generation in submerged conditions (symbol B); conditions: Table 23; application herbicide amount 320 g/ha; grade 0-5 by criteria of Test Example 1
Method in brief: (§1)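 Paddy pot test, submerged (4 cm water), alluvial soil, mixed sowing; greenhouse 25–30° C. Emulsion formulation diluted to predetermined rate, applied onto floodwater at 1–2 leaf stage. Visual herbicidal rating at 3 wk post-treatment.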

Galium spurium [1] = experiment: Test Example 5: herbicidal effect by foliage application, plastic box (symbol Q); conditions: 320 g/ha, 3 weeks after application
Method in brief: (§2)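 Greenhouse foliar test: seedlings at 14 days, grown 25° C. to 30° C. in sterilized diluvial soil; compound applied as an aqueous dilution of an emulsion; response read 3 weeks after spraying.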

corn = experiment: Test Example 4: effect on crop by soil treatment (symbol c); conditions: 320 g/ha
Method in brief: (§3)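 Soil-treatment setup: crop and weed seeds were spot-sown into sterilized diluvial soil, then buried beneath approximately 1.5 cm of it, and the boxes were housed in a 25–30° C. greenhouse.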

[2] = test system: Echinochloa oryzacola Vasing.; experiment: Test Example 1: herbicidal activity, application before weed generation in submerged conditions (symbol A); conditions: application herbicide amount 320 g/ha
Method in brief: (§4)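 Mixed weed seeds sown in alluvial soil under 4 cm of water, with rice seedlings at the 2.5-leaf stage added. Same-day treatment: emulsion diluted to a set herbicide amount onto the water. Three weeks at 25–30 °C, then graded on a six-step scale.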

Monochoria vaginalis [3] = experiment: Test Example 2: herbicidal activity, application during weed generation in submerged conditions (symbol C); conditions: Table 23; application herbicide amount 320 g/ha; grade 0-5 by criteria of Test Example 1
Method in brief: as §1

beet [4] = experiment: Test Example 4: effect on crop by soil treatment (symbol f); conditions: 320 g/ha
Method in brief: as §3

Monochoria vaginalis [5] = experiment: Test Example 1: herbicidal activity, application before weed generation in submerged conditions (symbol C); conditions: application herbicide amount 320 g/ha
Method in brief: as §4

beet [6] = experiment: Test Example 5: effect on crop by foliage application, plastic box (symbol f); conditions: 320 g/ha, 3 weeks after application
Method in brief: (§5)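 Sterilized diluvial soil, plastic box (21 × 13 × 7 cm); spot sowing, ~1.5 cm soil cover; greenhouse 25–30° C.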

Setaria viridis = experiment: Test Example 4: herbicidal effect by soil treatment (symbol G); conditions: 320 g/ha
Method in brief: (§6)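 Seeds were sown in sterilized diluvial soil, covered with about 1.5 cm of soil, and the soil surface was sprayed with a water-diluted emulsion of the compound at a predetermined rate. Plants grew in a greenhouse at 25° C. to 30° C.; effects were scored visually 3 weeks after application.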

[7] = test system: Echinochloa oryzacola Vasing.; experiment: Test Example 2: herbicidal activity, application during weed generation in submerged conditions (symbol A); conditions: Table 23; application herbicide amount 320 g/ha; grade 0-5 by criteria of Test Example 1
Method in brief: as §1

Amaranthus retroflexus = experiment: Test Example 5: herbicidal effect by foliage application, plastic box (symbol N); conditions: 320 g/ha, 3 weeks after application
Method in brief: as §2

rice plant = experiment: Test Example 5: effect on crop by foliage application, plastic box (symbol b); conditions: 320 g/ha, 3 weeks after application
Method in brief: as §5

Lolium multiflorum Lam. = experiment: Test Example 5: herbicidal effect by foliage application, plastic box (symbol K); conditions: 320 g/ha, 3 weeks after application
Method in brief: as §2

Abutilon theophrasti = experiment: Test Example 4: herbicidal effect by soil treatment (symbol M); conditions: 320 g/ha
Method in brief: as §6

Galium spurium [8] = experiment: Test Example 4: herbicidal effect by soil treatment (symbol Q); conditions: 320 g/ha
Method in brief: as §6

Alopecurus myosuroides = experiment: Test Example 5: herbicidal effect by foliage application, plastic box (symbol J); conditions: 320 g/ha, 3 weeks after application
Method in brief: as §2

wheat = experiment: Test Example 4: effect on crop by soil treatment (symbol e); conditions: 320 g/ha
Method in brief: as §3

SMILES | Herbicidal effect grade, B: Scirpus juncoides (Scirpus juncoides) | Q: Galium spurium, herbicidal effect (criteria 0-5) (Galium spurium [1]) | c: corn, effect grade on crop (corn) | Herbicidal effect grade, A: Echinochloa oryzacola Vasing. [2] | Herbicidal effect grade, C: Monochoria vaginalis (Monochoria vaginalis [3]) | f: beet, effect grade on crop (beet [4]) | Herbicidal effect grade, C: Monochoria vaginalis (Monochoria vaginalis [5]) | f: beet, effect on crop (criteria 0-5) (beet [6]) | G: Setaria viridis, herbicidal effect grade (Setaria viridis) | Herbicidal effect grade, A: Echinochloa oryzacola Vasing. [7] | N: Amaranthus retroflexus, herbicidal effect (criteria 0-5) (Amaranthus retroflexus) | b: directly sowed rice plant, effect on crop (criteria 0-5) (rice plant) | K: Lolium multiflorum Lam., herbicidal effect (criteria 0-5) (Lolium multiflorum Lam.) | M: Abutilon theophrasti, herbicidal effect grade (Abutilon theophrasti) | Q: Galium spurium, herbicidal effect grade (Galium spurium [8]) | J: Alopecurus myosuroides, herbicidal effect (criteria 0-5) (Alopecurus myosuroides) | e: wheat, effect grade on crop (wheat)
CC(CC1CC(O)=C(c2c(C)cc(C)cc2C)C1=O)=NOCC(N)=O (stereo not shown) [1-124] | 0 (Herbicidal ratio of 5% or lower (almost no effect)) | 0 (Herbicidal ratio of 5% or lower (almost no effect)) | 0 (Herbicidal ratio of 5% or lower (almost no effect)) | 1 (Herbicidal ratio of 5% or higher and lower than 20%) | 0 (Herbicidal ratio of 5% or lower (almost no effect)) | 0 (Herbicidal ratio of 5% or lower (almost no effect)) | 0 (Herbicidal ratio of 5% or lower (almost no effect)) | 0 (Herbicidal ratio of 5% or lower (almost no effect)) | 3 (Herbicidal ratio of 40% or higher and lower than 70%) | 2 (Herbicidal ratio of 20% or higher and lower than 40%) | 0 (Herbicidal ratio of 5% or lower (almost no effect)) | 3 (Herbicidal ratio of 40% or higher and lower than 70%) | 4 (Herbicidal ratio of 70% or higher and lower than 90%) | 0 (Herbicidal ratio of 5% or lower (almost no effect)) | 0 (Herbicidal ratio of 5% or lower (almost no effect)) | 3 (Herbicidal ratio of 40% or higher and lower than 70%) | 0 (Herbicidal ratio of 5% or lower (almost no effect))
CON=C(C)CC1CC(OC(=O)CSc2ccccc2)=C(c2c(C)cc(C)cc2C)C1=O (stereo not shown) [1-134] | 4 (Herbicidal ratio of 70% or higher and lower than 90%) | 4 (Herbicidal ratio of 70% or higher and lower than 90%) | 5 (Herbicidal ratio of 90% or more (almost completely withered)) | 5 (Herbicidal ratio of 90% or more (almost completely withered)) | 3 (Herbicidal ratio of 40% or higher and lower than 70%) | 0 (Herbicidal ratio of 5% or lower (almost no effect)) | 1 (Herbicidal ratio of 5% or higher and lower than 20%) | 0 (Herbicidal ratio of 5% or lower (almost no effect)) | 5 (Herbicidal ratio of 90% or more (almost completely withered)) | 5 (Herbicidal ratio of 90% or more (almost completely withered)) | 1 (Herbicidal ratio of 5% or higher and lower than 20%) | 5 (Herbicidal ratio of 90% or more (almost completely withered)) | 5 (Herbicidal ratio of 90% or more (almost completely withered)) | 3 (Herbicidal ratio of 40% or higher and lower than 70%) | 0 (Herbicidal ratio of 5% or lower (almost no effect)) | 5 (Herbicidal ratio of 90% or more (almost completely withered)) | 2 (Herbicidal ratio of 20% or higher and lower than 40%)

— patent US11000033B2, “Ketone or oxime compound, and herbicide” (NISSAN CHEMICAL CORPORATION, priority 2014, dated 2021)
